# Test results as given in patent US20230210797A1, “PREVENTING AND TREATING HYPOGLYCEMIA” (DIAMYD MEDICAL AB, priority 2019, published 2023).
# Entries after “also recorded” stand apart in the source; their conditions may differ.
# Columns and labels:
# cortisol = assay: Hypoglycemic clamp: plasma cortisol levels; format: in vivo, human; details: for Cortisol levels, Change from baseline, Mean (SD) / Cortisol levels, Change from baseline, Median (Min, Max) / Cortisol levels, Observed value, Mean (SD) / Cortisol levels, Observed value, Median (Min, Max): C-peptide undetectable
# Procedure: (§1) In order to evaluate the counterregulatory hormone response to hypoglycemia, a hypoglycemic clamp will be performed. The Hypoglycemic Clamp must be performed according to the instructions in the Operations Manual. (Appendix 3)
# (§2) The patient should: • Come to the study site following an overnight fast (>10 hours), i.e. the patient may not eat but is permitted to drink water • Not have taken the Remygen and, if applicable, Alprazolam dose in the morning • Not take short acting/direct acting insulin within 6 hours before the investigation. • The patient is allowed to take base-insulin day/night before, but not in the morning before the investigation.
# (§3) Patients with CSII (insulin pump) must continue with their basal dose insulin, but not add bolus dose during the last 6 hours before the investigation.
# (§4) If a patient has a blood sugar level <4 mmol/L in the morning of the scheduled visit, the patient is allowed to take dextrose tablets and then come to the study site. The patient is allowed to perform the investigation if the blood sugar level is >4 mmol/L.
# (§5) In the dose-escalation part of the study, the patient will take study drug 30 min prior to start of the hypoglycemic clamp. In the main study, the study drug will instead be taken after finalization of the hypoglycemic clamp. Baseline blood samples will be obtained for glucose, glucagon, epinephrine, norepinephrine, growth hormone and cortisol. The clamp will then be initiated by an intravenous insulin infusion at a rate of 2 mU×kg^−1×min^−1. Glucose 100 mg/ml will then be administered in variable infusion rates to clamp the blood glucose concentration at 5.5 mmol/land then at 2.5 mmol/land kept stable for 30 min. Blood glucose will be evaluated repeatedly in order to find the optimal glucose infusion rate. Blood sampling to determined levels of counterregulatory hormones as described above will be performed at each of these target levels when a stable glucose concentration has been reached. The insulin infusion will thereafter be terminated and the patient is allowed to eat and will be observed until normoglycemia is achieved. If necessary, additional glucose administration will be given to allow blood glucose concentrations to normalize.
# Only patients with c-peptide levels that were undetectable (in a standard assay, i.e. <0.01 nmol/L) are included (5 of 6) in the data below.
# Plasma levels of glucagon, cortisol, epinephrine, growth hormone and glucose were measured at baseline (increased glucose in T1D subjects). Plasma glucose was first lowered to normoglycemic levels (5.5 mmol/L) and hormone levels monitored, and then to hypoglycemic levels (2.5 mmol/L) and hormone levels monitored. Difference was calculated as a measurement of the response to hypoglycemia.
# epinephrine = assay: Hypoglycemic clamp: plasma epinephrine levels; format: in vivo, human; details: for epinephrine levels, Change from baseline, Mean (SD) / epinephrine levels, Change from baseline, Median (Min, Max) / epinephrine levels, Observed value, Mean (SD) / epinephrine levels, Observed value, Median (Min, Max): C-peptide undetectable
# Procedure: as §1, §2, §3, §4, §5
# Plasma glucose was first lowered to normoglycemic levels (5.5 mmol/L) and hormone levels monitored, and then to hypoglycemic levels (2.5 mmol/L) and hormone levels monitored. Difference was calculated as a measurement of the response to hypoglycemia.
# [1] = Visit 5, 200 mg GABA per day, Event 2.5 mmol/L
# [2] = Visit 5, 200 mg GABA per day, Event 5.5 mmol/L
# [3] = Visit 5, 200 mg GABA per day, Event Baseline
# [4] = Visit 5, 200 mg GABA per day, Event Diff 2.5-5.5 mmol/L
# [5] = Visit 7, 600 mg GABA per day, Event 2.5 mmol/L
# [6] = Visit 7, 600 mg GABA per day, Event 5.5 mmol/L
# [7] = Visit 7, 600 mg GABA per day, Event Baseline
# [8] = Visit 7, 600 mg GABA per day, Event Diff 2.5-5.5 mmol/L
# [9] = Visit 9, 1200 mg GABA per day, Event 2.5 mmol/L
# [10] = Visit 9, 1200 mg GABA per day, Event 5.5 mmol/L
# [11] = Visit 9, 1200 mg GABA per day, Event Baseline
# [12] = Visit 9, 1200 mg GABA per day, Event Diff 2.5-5.5 mmol/L
# [13] = change in levels when clamping to 2.5 mmol/L from 5.5 mmol/L
smiles,measurement,setting,value
"NCCCC(=O)O [GABA, Gamma-amino butyric acid]","Cortisol levels, Change from baseline, Mean (SD)",cortisol; [1],49.6 nmol/L
same,"Cortisol levels, Change from baseline, Median (Min, Max)",cortisol; [1],40.0 nmol/L
same,"Cortisol levels, Observed value, Mean (SD)",cortisol; [1],356.2 nmol/L
same,"Cortisol levels, Observed value, Median (Min, Max)",cortisol; [1],334.0 nmol/L
same,"Cortisol levels, Change from baseline, Mean (SD)",cortisol; [2],-141.8 nmol/L
same,"Cortisol levels, Change from baseline, Median (Min, Max)",cortisol; [2],-179.0 nmol/L
same,"Cortisol levels, Observed value, Mean (SD)",cortisol; [2],198.8 nmol/L
same,"Cortisol levels, Observed value, Median (Min, Max)",cortisol; [2],176.0 nmol/L
same,"Cortisol levels, Change from baseline, Mean (SD)",cortisol; [3],-198.8 nmol/L
same,"Cortisol levels, Change from baseline, Median (Min, Max)",cortisol; [3],-196.0 nmol/L
same,"Cortisol levels, Observed value, Mean (SD)",cortisol; [3],215.0 nmol/L
same,"Cortisol levels, Observed value, Median (Min, Max)",cortisol; [3],213.0 nmol/L
same,"Cortisol levels, Change from baseline, Mean (SD)",cortisol; [4],191.4 nmol/L
same,"Cortisol levels, Change from baseline, Median (Min, Max)",cortisol; [4],125.0 nmol/L
same,"Cortisol levels, Observed value, Mean (SD)",cortisol; [4],157.4 nmol/L
same,"Cortisol levels, Observed value, Median (Min, Max)",cortisol; [4],162.0 nmol/L
same,"Cortisol levels, Change from baseline, Mean (SD)",cortisol; [5],51.8 nmol/L
same,"Cortisol levels, Change from baseline, Median (Min, Max)",cortisol; [5],36.0 nmol/L
same,"Cortisol levels, Observed value, Mean (SD)",cortisol; [5],358.4 nmol/L
same,"Cortisol levels, Observed value, Median (Min, Max)",cortisol; [5],360.0 nmol/L
same,"Cortisol levels, Change from baseline, Mean (SD)",cortisol; [6],-157.0 nmol/L
same,"Cortisol levels, Change from baseline, Median (Min, Max)",cortisol; [6],-185.0 nmol/L
same,"Cortisol levels, Observed value, Mean (SD)",cortisol; [6],183.6 nmol/L
same,"Cortisol levels, Observed value, Median (Min, Max)",cortisol; [6],166.0 nmol/L
same,"Cortisol levels, Change from baseline, Mean (SD)",cortisol; [7],-222.6 nmol/L
same,"Cortisol levels, Change from baseline, Median (Min, Max)",cortisol; [7],-217.0 nmol/L
same,"Cortisol levels, Observed value, Mean (SD)",cortisol; [7],191.2 nmol/L
same,"Cortisol levels, Observed value, Median (Min, Max)",cortisol; [7],189.0 nmol/L
same,"Cortisol levels, Change from baseline, Mean (SD)",cortisol; [8],208.8 nmol/L
same,"Cortisol levels, Change from baseline, Median (Min, Max)",cortisol; [8],141.0 nmol/L
same,"Cortisol levels, Observed value, Mean (SD)",cortisol; [8],174.8 nmol/L
same,"Cortisol levels, Observed value, Median (Min, Max)",cortisol; [8],194.0 nmol/L
same,"Cortisol levels, Change from baseline, Mean (SD)",cortisol; [9],6.6 nmol/L
same,"Cortisol levels, Change from baseline, Median (Min, Max)",cortisol; [9],29.0 nmol/L
same,"Cortisol levels, Observed value, Mean (SD)",cortisol; [9],313.2 nmol/L
same,"Cortisol levels, Observed value, Median (Min, Max)",cortisol; [9],285.0 nmol/L
same,"Cortisol levels, Change from baseline, Mean (SD)",cortisol; [10],-117.2 nmol/L
same,"Cortisol levels, Change from baseline, Median (Min, Max)",cortisol; [10],-115.0 nmol/L
same,"Cortisol levels, Observed value, Mean (SD)",cortisol; [10],223.4 nmol/L
same,"Cortisol levels, Observed value, Median (Min, Max)",cortisol; [10],193.0 nmol/L
same,"Cortisol levels, Change from baseline, Mean (SD)",cortisol; [11],-196.0 nmol/L
same,"Cortisol levels, Change from baseline, Median (Min, Max)",cortisol; [11],-191.0 nmol/L
same,"Cortisol levels, Observed value, Mean (SD)",cortisol; [11],217.8 nmol/L
same,"Cortisol levels, Observed value, Median (Min, Max)",cortisol; [11],226.0 nmol/L
same,"Cortisol levels, Change from baseline, Mean (SD)",cortisol; [12],123.8 nmol/L
same,"Cortisol levels, Change from baseline, Median (Min, Max)",cortisol; [12],83.0 nmol/L
same,"Cortisol levels, Observed value, Mean (SD)",cortisol; [12],89.8 nmol/L
same,"Cortisol levels, Observed value, Median (Min, Max)",cortisol; [12],-10.0 nmol/L
same,"Counter regulatory response of Cortisol, effect of GABA treatment",cortisol; [13],increased
same,"Normoglycemic levels of Cortisol, effect of GABA treatment",cortisol; clamped to 5.5 mmol/L,decrease
same,"Baseline (no clamp) Cortisol levels, effect of GABA treatment","cortisol; dose escalation part, oral GABA, type 1 diabetes patients with undetectable c-peptide",downregulated; also recorded: decrease
same,"epinephrine levels, Change from baseline, Mean (SD)",epinephrine; [1],0.800 (0.720) nmol/L
same,"epinephrine levels, Change from baseline, Median (Min, Max)",epinephrine; [1],"0.400 (0.30, 2.00) nmol/L"
same,"epinephrine levels, Observed value, Mean (SD)",epinephrine; [1],1.640 (1.014) nmol/L
same,"epinephrine levels, Observed value, Median (Min, Max)",epinephrine; [1],"1.200 (0.50, 2.90) nmol/L"
same,"epinephrine levels, Change from baseline, Mean (SD)",epinephrine; [2],0.000 (0.000) nmol/L
same,"epinephrine levels, Change from baseline, Median (Min, Max)",epinephrine; [2],"0.000 (0.00, 0.00) nmol/L"
same,"epinephrine levels, Observed value, Mean (SD)",epinephrine; [2],0.150 (0.000) nmol/L
same,"epinephrine levels, Observed value, Median (Min, Max)",epinephrine; [2],"0.150 (0.15, 0.15) nmol/L"
same,"epinephrine levels, Change from baseline, Mean (SD)",epinephrine; [3],0.000 (0.000) nmol/L
same,"epinephrine levels, Change from baseline, Median (Min, Max)",epinephrine; [3],"0.000 (0.00, 0.00) nmol/L"
same,"epinephrine levels, Observed value, Mean (SD)",epinephrine; [3],0.150 (0.000) nmol/L
same,"epinephrine levels, Observed value, Median (Min, Max)",epinephrine; [3],"0.150 (0.15, 0.15) nmol/L"
same,"epinephrine levels, Change from baseline, Mean (SD)",epinephrine; [4],0.800 (0.720) nmol/L
same,"epinephrine levels, Change from baseline, Median (Min, Max)",epinephrine; [4],"0.400 (0.30, 2.00) nmol/L"
same,"epinephrine levels, Observed value, Mean (SD)",epinephrine; [4],1.490 (1.014) nmol/L
same,"epinephrine levels, Observed value, Median (Min, Max)",epinephrine; [4],"1.050 (0.35, 2.75) nmol/L"
same,"epinephrine levels, Change from baseline, Mean (SD)",epinephrine; [5],0.560 (0.585) nmol/L
same,"epinephrine levels, Change from baseline, Median (Min, Max)",epinephrine; [5],"0.800 (−0.40, 1.10) nmol/L"
same,"epinephrine levels, Observed value, Mean (SD)",epinephrine; [5],1.400 (0.579) nmol/L
same,"epinephrine levels, Observed value, Median (Min, Max)",epinephrine; [5],"1.700 (0.60, 2.00) nmol/L"
same,"epinephrine levels, Change from baseline, Median (Min, Max)",epinephrine; [6],"0.000 (0.00, 0.25) nmol/L"
same,"epinephrine levels, Observed value, Median (Min, Max)",epinephrine; [6],"0.150 (0.15, 0.40) nmol/L"
same,"epinephrine levels, Change from baseline, Mean (SD)",epinephrine; [7],0.000 (0.000) nmol/L
same,"epinephrine levels, Change from baseline, Median (Min, Max)",epinephrine; [7],"0.000 (0.00, 0.00) nmol/L"
same,"epinephrine levels, Observed value, Mean (SD)",epinephrine; [7],0.150 (0.000) nmol/L
same,"epinephrine levels, Observed value, Median (Min, Max)",epinephrine; [7],"0.150 (0.15, 0.15) nmol/L"
same,"epinephrine levels, Change from baseline, Mean (SD)",epinephrine; [8],0.510 (0.564) nmol/L
same,"epinephrine levels, Change from baseline, Median (Min, Max)",epinephrine; [8],"0.600 (−0.40, 1.10) nmol/L"
same,"epinephrine levels, Observed value, Mean (SD)",epinephrine; [8],1.200 (0.630) nmol/L
same,"epinephrine levels, Change from baseline, Mean (SD)",epinephrine; [9],0.670 (0.709) nmol/L
same,"epinephrine levels, Change from baseline, Median (Min, Max)",epinephrine; [9],"0.500 (0.00, 1.70) nmol/L"
same,"epinephrine levels, Observed value, Mean (SD)",epinephrine; [9],1.510 (1.070) nmol/L
same,"epinephrine levels, Observed value, Median (Min, Max)",epinephrine; [9],"1.200 (0.15, 2.60) nmol/L"
same,"epinephrine levels, Change from baseline, Mean (SD)",epinephrine; [10],0.000 (0.000) nmol/L
same,"epinephrine levels, Change from baseline, Median (Min, Max)",epinephrine; [10],"0.000 (0.00, 0.00) nmol/L"
same,"epinephrine levels, Observed value, Mean (SD)",epinephrine; [10],0.150 (0.000) nmol/L
same,"epinephrine levels, Observed value, Median (Min, Max)",epinephrine; [10],"0.150 (0.15, 0.15) nmol/L"
same,"epinephrine levels, Change from baseline, Mean (SD)",epinephrine; [11],0.000 (0.000) nmol/L
same,"epinephrine levels, Change from baseline, Median (Min, Max)",epinephrine; [11],"0.000 (0.00, 0.00) nmol/L"
same,"epinephrine levels, Observed value, Mean (SD)",epinephrine; [11],0.150 (0.000) nmol/L
same,"epinephrine levels, Observed value, Median (Min, Max)",epinephrine; [11],"0.150 (0.15, 0.15) nmol/L"
same,"epinephrine levels, Change from baseline, Mean (SD)",epinephrine; [12],0.670 (0.709) nmol/L
same,"epinephrine levels, Change from baseline, Median (Min, Max)",epinephrine; [12],"0.500 (0.00, 1.70) nmol/L"
same,"epinephrine levels, Observed value, Median (Min, Max)",epinephrine; [12],"1.050 (0.00, 2.45) nmol/L"
same,"Counter regulatory response of Epinephrine, effect of GABA treatment",epinephrine; [13],increased
